From PubChem BioAssay (NCI)
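Results reflect a 48-hour exposure of cells in 96-well plates to compound at five concentrations. TGI denotes the concentration required for complete inhibition of growth.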

Tests used:
Assay in all cases: NCI tumour cell line growth inhibition, 48 h
HCT-15 colon = system: HCT-15 colon
CCRF-CEM leukemia = system: CCRF-CEM leukemia
OVCAR-4 ovarian = system: OVCAR-4 ovarian
COLO 205 colon = system: COLO 205 colon
OVCAR-8 ovarian = system: OVCAR-8 ovarian
IGROV1 ovarian = system: IGROV1 ovarian
OVCAR-5 ovarian = system: OVCAR-5 ovarian
MCF7 breast = system: MCF7 breast
MDA-MB-231 breast = system: MDA-MB-231 breast
SN12C renal = system: SN12C renal
HT29 colon = system: HT29 colon
SF-295 CNS = system: SF-295 CNS
M14 melanoma = system: M14 melanoma
NCI-H460 lung = system: NCI-H460 lung
MOLT-4 leukemia = system: MOLT-4 leukemia
DU-145 prostate = system: DU-145 prostate
SNB-19 CNS = system: SNB-19 CNS
BT-549 breast = system: BT-549 breast
RXF 393 renal = system: RXF 393 renal
SK-MEL-28 melanoma = system: SK-MEL-28 melanoma
SK-MEL-5 melanoma = system: SK-MEL-5 melanoma
NCI-H226 lung = system: NCI-H226 lung
OVCAR-3 ovarian = system: OVCAR-3 ovarian
HL-60(TB) leukemia = system: HL-60(TB) leukemia
LOX IMVI melanoma = system: LOX IMVI melanoma
SF-268 CNS = system: SF-268 CNS
MDA-N = system: MDA-N
RPMI-8226 leukemia = system: RPMI-8226 leukemia
SNB-75 CNS = system: SNB-75 CNS
TK-10 renal = system: TK-10 renal
UO-31 renal = system: UO-31 renal
T-47D breast = system: T-47D breast
MALME-3M melanoma = system: MALME-3M melanoma
SR leukemia = system: SR leukemia
ACHN renal = system: ACHN renal
UACC-257 melanoma = system: UACC-257 melanoma
A549 NSCLC = system: A549 NSCLC
MDA-MB-435 = system: MDA-MB-435
SK-MEL-2 melanoma = system: SK-MEL-2 melanoma
NCI-H522 lung = system: NCI-H522 lung
U251 CNS = system: U251 CNS
KM12 colon = system: KM12 colon
UACC-62 melanoma = system: UACC-62 melanoma
NCI-H23 lung = system: NCI-H23 lung
786-0 renal = system: 786-0 renal
HS 578T breast = system: HS 578T breast
HCC-2998 colon = system: HCC-2998 colon
SW-620 colon = system: SW-620 colon
K-562 leukemia = system: K-562 leukemia
HOP-92 NSCLC = system: HOP-92 NSCLC
SK-OV-3 ovarian = system: SK-OV-3 ovarian
PC-3 prostate = system: PC-3 prostate
A498 renal = system: A498 renal
HCT-116 colon = system: HCT-116 colon
SF-539 CNS = system: SF-539 CNS
EKVX NSCLC = system: EKVX NSCLC
NCI/ADR-RES ovarian = system: NCI/ADR-RES ovarian
CAKI-1 renal = system: CAKI-1 renal
HOP-62 NSCLC = system: HOP-62 NSCLC

Measured: TGI

CN1CCN(C(=S)N(C(=O)c2ccco2)c2ccccc2)CC1
> 100 µM: HCT-15 colon | CCRF-CEM leukemia | OVCAR-4 ovarian | COLO 205 colon | OVCAR-8 ovarian | IGROV1 ovarian | OVCAR-5 ovarian | MCF7 breast | MDA-MB-231 breast | SN12C renal | HT29 colon | SF-295 CNS | M14 melanoma | NCI-H460 lung | MOLT-4 leukemia | DU-145 prostate | SNB-19 CNS | BT-549 breast | RXF 393 renal | SK-MEL-28 melanoma | SK-MEL-5 melanoma | NCI-H226 lung | OVCAR-3 ovarian | HL-60(TB) leukemia | LOX IMVI melanoma | SF-268 CNS | MDA-N | RPMI-8226 leukemia | SNB-75 CNS | TK-10 renal | UO-31 renal | T-47D breast | MALME-3M melanoma | SR leukemia | ACHN renal | UACC-257 melanoma | A549 NSCLC | MDA-MB-435 | SK-MEL-2 melanoma | NCI-H522 lung | U251 CNS | KM12 colon | UACC-62 melanoma | NCI-H23 lung | 786-0 renal | HS 578T breast | HCC-2998 colon | SW-620 colon | K-562 leukemia | HOP-92 NSCLC

COC(=O)NN=C(c1ccc(Cl)cc1)c1ccc(Cl)cc1
> 100 µM: HCT-15 colon | CCRF-CEM leukemia | OVCAR-4 ovarian | COLO 205 colon | SK-OV-3 ovarian | OVCAR-8 ovarian | IGROV1 ovarian | PC-3 prostate | OVCAR-5 ovarian | MCF7 breast | MDA-MB-231 breast | SN12C renal | HT29 colon | M14 melanoma | NCI-H460 lung | MOLT-4 leukemia | DU-145 prostate | SNB-19 CNS | A498 renal | BT-549 breast | HCT-116 colon | RXF 393 renal | SK-MEL-28 melanoma | SK-MEL-5 melanoma | NCI-H226 lung | OVCAR-3 ovarian | HL-60(TB) leukemia | LOX IMVI melanoma | SF-539 CNS | EKVX NSCLC | SF-268 CNS | MDA-N | RPMI-8226 leukemia | SNB-75 CNS | TK-10 renal | UO-31 renal | T-47D breast | MALME-3M melanoma | SR leukemia | UACC-257 melanoma | A549 NSCLC | NCI/ADR-RES ovarian | MDA-MB-435 | SK-MEL-2 melanoma | NCI-H522 lung | U251 CNS | KM12 colon | UACC-62 melanoma | CAKI-1 renal | NCI-H23 lung | 786-0 renal | HS 578T breast | HCC-2998 colon | SW-620 colon | K-562 leukemia

O=C(CCCc1ccccn1)c1ccccc1
> 100 µM: HCT-15 colon | CCRF-CEM leukemia | OVCAR-4 ovarian | COLO 205 colon | SK-OV-3 ovarian | OVCAR-8 ovarian | IGROV1 ovarian | PC-3 prostate | OVCAR-5 ovarian | MCF7 breast | MDA-MB-231 breast | SN12C renal | HT29 colon | SF-295 CNS | M14 melanoma | NCI-H460 lung | MOLT-4 leukemia | DU-145 prostate | SNB-19 CNS | A498 renal | BT-549 breast | HCT-116 colon | RXF 393 renal | SK-MEL-28 melanoma | SK-MEL-5 melanoma | NCI-H226 lung | OVCAR-3 ovarian | HL-60(TB) leukemia | HOP-62 NSCLC | LOX IMVI melanoma | SF-539 CNS | EKVX NSCLC | SF-268 CNS | MDA-N | RPMI-8226 leukemia | SNB-75 CNS | TK-10 renal | UO-31 renal | T-47D breast | MALME-3M melanoma | ACHN renal | UACC-257 melanoma | A549 NSCLC | NCI/ADR-RES ovarian | MDA-MB-435 | SK-MEL-2 melanoma | NCI-H522 lung | U251 CNS | UACC-62 melanoma | CAKI-1 renal | NCI-H23 lung | 786-0 renal | HS 578T breast | HCC-2998 colon | SW-620 colon | K-562 leukemia | HOP-92 NSCLC

NC(=O)C(NC=O)c1ccccc1 (stereo not given)
> 100 µM: HCT-15 colon | CCRF-CEM leukemia | OVCAR-4 ovarian | COLO 205 colon | SK-OV-3 ovarian | OVCAR-8 ovarian | IGROV1 ovarian | PC-3 prostate | MCF7 breast | MDA-MB-231 breast | SN12C renal | HT29 colon | SF-295 CNS | M14 melanoma | NCI-H460 lung | MOLT-4 leukemia | DU-145 prostate | SNB-19 CNS | BT-549 breast | HCT-116 colon | RXF 393 renal | SK-MEL-28 melanoma | SK-MEL-5 melanoma | OVCAR-3 ovarian | HL-60(TB) leukemia | HOP-62 NSCLC | LOX IMVI melanoma | SF-539 CNS | EKVX NSCLC | SF-268 CNS | MDA-N | SNB-75 CNS | TK-10 renal | UO-31 renal | T-47D breast | SR leukemia | ACHN renal | UACC-257 melanoma | A549 NSCLC | NCI/ADR-RES ovarian | MDA-MB-435 | NCI-H522 lung | U251 CNS | KM12 colon | UACC-62 melanoma | CAKI-1 renal | NCI-H23 lung | 786-0 renal | HS 578T breast | HCC-2998 colon | SW-620 colon | K-562 leukemia | HOP-92 NSCLC
